From the supplement of paper PMC10307832

Columns and labels:
Test in all cases: relative viability (nuclei count vs DMSO), 5 days (fraction); higher = more cells survive
Axitinib + Linsitinib = compound: CNC(=O)c1ccccc1Sc1ccc2c(/C=C/c3ccccn3)n[nH]c2c1 [Axitinib] + C[C@]1(O)C[C@@H](c2nc(-c3ccc4ccc(-c5ccccc5)nc4c3)c3c(N)nccn32)C1 [Linsitinib] (partner 1 µM)
In short: (§1)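 Relative viability divides the nuclei count in treated wells by that in vehicle wells. Lung cancer cell lines were seeded in 1536-well plates, dosed by pin tool the next day, and fixed and stained after 5 days in one step with final 0.05% Triton X-100, 1% formaldehyde and 1 ug/ml Hoechst. Dosing was a single drug or a fixed anchor-drug dose plus five library-drug doses (not always all listed) in √10 steps, and values are medians of duplicate plates imaged at 4×.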

Bemcentinib + Linsitinib = compound: Nc1nc(Nc2ccc3c(c2)CC[C@@H](N2CCCC2)CC3)nn1-c1cc2c(nn1)-c1ccccc1CCC2 [Bemcentinib] + C[C@]1(O)C[C@@H](c2nc(-c3ccc4ccc(-c5ccccc5)nc4c3)c3c(N)nccn32)C1 [Linsitinib] (partner 1 µM)
In short: as §1

Axitinib + Palbociclib = compound: CNC(=O)c1ccccc1Sc1ccc2c(/C=C/c3ccccn3)n[nH]c2c1 [Axitinib] + CC(=O)c1c(C)c2cnc(Nc3ccc(N4CCNCC4)cn3)nc2n(C2CCCC2)c1=O [Palbociclib] (partner 0.5 µM)
In short: as §1

Axitinib + Vorinostat = compound: CNC(=O)c1ccccc1Sc1ccc2c(/C=C/c3ccccn3)n[nH]c2c1 [Axitinib] + O=C(CCCCCCC(=O)Nc1ccccc1)NO [Vorinostat] (partner 1 µM)
In short: as §1

| Cell Line | relative viability (Axitinib + Linsitinib; first compound 0.005 µM) | relative viability (Axitinib + Linsitinib; first compound 0.01581 µM) | relative viability (Axitinib + Linsitinib; first compound 0.05 µM) | relative viability (Axitinib + Linsitinib; first compound 0.1581 µM) | relative viability (Axitinib + Linsitinib; first compound 0.5 µM) | relative viability (Bemcentinib + Linsitinib; first compound 0.04 µM) | relative viability (Bemcentinib + Linsitinib; first compound 0.1265 µM) | relative viability (Bemcentinib + Linsitinib; first compound 0.4 µM) | relative viability (Bemcentinib + Linsitinib; first compound 1.265 µM) | relative viability (Bemcentinib + Linsitinib; first compound 4 µM) | relative viability (Axitinib + Palbociclib; first compound 0.005 µM) | relative viability (Axitinib + Palbociclib; first compound 0.01581 µM) | relative viability (Axitinib + Palbociclib; first compound 0.05 µM) | relative viability (Axitinib + Palbociclib; first compound 0.1581 µM) | relative viability (Axitinib + Palbociclib; first compound 0.5 µM) | relative viability (Axitinib + Vorinostat; first compound 0.005 µM) | relative viability (Axitinib + Vorinostat; first compound 0.01581 µM) | relative viability (Axitinib + Vorinostat; first compound 0.05 µM) | relative viability (Axitinib + Vorinostat; first compound 0.1581 µM) | relative viability (Axitinib + Vorinostat; first compound 0.5 µM) |
| --- | --- | --- | --- | --- | --- | --- | --- | --- | --- | --- | --- | --- | --- | --- | --- | --- | --- | --- | --- | --- |
| NCI-H23 | 0.66 | 0.618 | 0.653 | 0.587 | 0.721 | 0.576 | 0.692 | 0.554 | 0.72 | 0.568 | 0.458 | 0.512 | 0.616 | 0.483 | 0.559 | 0.644 | 0.51 | 0.674 | 0.583 | 0.667 |
| CAL-12T | 0.873 | 0.903 | 0.748 | 0.911 | 0.712 | 0.865 | 0.821 | 0.927 | 0.823 | 0.863 | 0.586 | 0.508 | 0.41 | 0.525 | 0.522 | 0.869 | 0.72 | 0.686 | 0.737 | 1.12 |
| A-427 | 1.14 | 1.02 | 1.11 | 1.16 | 1.17 |  | 1.14 | 1.07 | 1.14 | 1.14 | 0.491 | 0.511 | 0.564 | 0.567 | 0.543 | 0.909 | 0.929 | 0.864 | 0.903 | 0.956 |
| NCI-H2009 | 1.23 | 1.18 | 1.21 | 1.28 | 1.36 | 1.21 | 1.25 | 1.14 | 1.17 | 1.21 | 0.257 | 0.295 | 0.203 | 0.233 | 0.255 | 0.732 | 0.783 | 0.736 | 0.716 | 0.821 |
| UMC-11 | 1.08 | 0.982 | 1.02 | 1.04 | 1.1 | 1.01 | 1.08 | 1.06 | 0.978 | 0.977 | 0.316 | 0.318 | 0.313 | 0.302 | 0.311 | 0.323 | 0.339 | 0.401 | 0.408 | 0.36 |
| LOU-NH91 | 1.08 | 0.595 | 0.997 | 0.948 | 0.961 | 0.942 | 0.895 | 0.959 | 0.943 | 0.956 | 0.564 | 0.568 | 0.537 | 0.444 | 0.527 | 0.966 | 0.765 | 1.01 | 0.875 | 0.939 |
| HOP-62 | 0.961 | 0.977 | 0.777 | 0.894 | 1.06 | 1.12 | 0.986 |  | 1.08 | 0.99 | 0.469 | 0.436 | 0.44 | 0.45 | 0.468 | 0.713 | 0.686 | 0.585 | 0.696 | 0.76 |
| NCI-H1993 | 0.725 | 0.745 | 0.773 | 0.79 | 0.826 | 0.699 | 0.735 | 0.776 | 0.773 | 0.804 | 0.604 | 0.68 | 0.678 | 0.583 | 0.677 | 0.826 | 0.835 | 0.734 | 0.722 | 0.876 |
